Assay results reported in patent publication US20050069947A1, “Antibodies specific for nanotubes and related methods and compositions” (priority 2001, published 2005).

Tests used:
[1] = test system: anti-fullerene antibodies; test: ELISA inhibition of antibody binding to 1-RSA; design: species or system mice; details: for reactivity with polyclonal antibodies raised to C60: method not stated at the place; for inhibition of antibody binding to 1-RSA (ELISA inhibition): serum of mice immunized with 1-TG, plates coated with 1-RSA
Procedure: After a total of three immunizations at 3-week intervals, confirmation of an immune response was determined by direct ELISA in which polystyrene plates (Corning) were coated with the 1-RSA conjugate (0.5 mg/ml in 0.1 M NaHCO3, pH 9), and binding of preimmune and immune sera were determined by standard procedures. Development was with horseradish peroxidase-labeled goat anti-mouse IgG (Sigma), which tested negative for crossreaction with an IgM preparation. The substrate used was o-phenylenediamine.
(§1) Specificity of the response was determined by two procedures: double diffusion in agar (22) and competitive inhibition, as determined by ELISA using RSA and BSA conjugates of the fullerenes, as well as the oligo lysine derivatives. The fullerenes themselves were not soluble enough in aqueous solutions.
The adenosine conjugate had been synthesized using the same strategy used for the fullerenes, i.e., linkage to the epsilon amino groups of the lysines via an N-hydroxysuccinimide ester derivative.
After a total of 3 immunizations at 3 week intervals, confirmation of an immune response was determined by direct ELISA in which polystyrene plates (Corning) were coated with 1-RSA conjugate (0.5 mg/ml in O.1 N NaHCO3, pH 9) and binding of preimmune and immune sera determined by standard procedures. Development was with horseradish peroxide-labeled goat anti-mouse IgG (Sigma, St. Louis, MO) which tested negative for cross reaction with an IgM preparation. The substrate used was o-phenylenediamine.
(§2) Specificity of the response was determined by two procedures: double diffusion in agar and competitive inhibition, as determined by ELISA using RSA and BSA conjugates of the fullerenes, as well as the oligo lysine derivatives. The fullerenes themselves were not soluble enough in aqueous solutions.

[2] = acute and subchronic topical applications; cited from earlier work
[3] = Gamma-camera imaging biodistribution study; format: in vivo, Sprague-Dawley rats
Procedure: The biodistribution in mice of hydroxylated lanthanide-C82 encapsulates is under current investigation. The results presented here are regarded as preliminary as the sample is still small. Studies continue under a NIH Phase I grant. The neutron irradiated samples, along with a […] control sample, were used to perform a γ-camera imaging study on four 300 g Sprague-Dawley rats. Two rats were injected intraperitoneally (IP) with 54 and 18 μCi of ^166Ho activity from samples containing irradiated Ho-metallofullerois. Two control studies were performed by […] of approximately 660 μCi of ^166Ho^3+ in a 1% sodium citrate buffer. The anesthetized rats were scanned side-by-side on a single stage with a γ-camera starting 1 hour after injection and periodically thereafter over the ensuing 48 hours.

[4] = test system: anti-fullerene antibodies; test: Double diffusion in agar; format: binding, mice
Procedure: as §1, §2

## c12c3c4c5c1c1c6c7c2c2c8c3c3c9c4c4c%10c5c5c1c1c6c6c%11c%12c%13c%14c%15c%16c%17c%14c%14c%18c%13c%11c1c1c5c%10c5c(c%14c%10c%17c%11c%13c%16c%14c%16c%15c%12c%12c%16c(c2c7c%126)c2c8c3c(c%13c%142)c2c9c4c5c%10c%112)c%181 [Compound C70]
[1]
  reactivity with polyclonal antibodies raised to C60: non-reactive
[1]; listed as C70 fullerene
  reactivity with polyclonal antibodies raised to C60: crossreacted
[2]
  carcinogenic effects: lack of carcinogenic effects

## [166Ho+3] [^166Ho^3−]
[3]; IP, commencing as soon as 1 hour post-injection
  urinary clearance: rapid
[3]; after 24 hours
  ^166Ho activity excreted: essentially all

## RSA: rabbit serum albumin, control
[1]
  inhibition of antibody binding to 1-RSA (ELISA inhibition): No inhibition

## TG: unsubstituted bovine thyroglobulin, carrier protein
[1]
  inhibition of antibody binding to 1-RSA (ELISA inhibition): No inhibition
[4]; TG solution diluted 5-fold
  precipitation in double diffusion in agar: a line of precipitation was seen
[4]; serum of mice immunized with 1-TG
  precipitation in double diffusion in agar: no visible precipitate
